# Patent US10807992B2, “Single enantiomer antiparasitic compounds” (priority 2017, dated 2020)
# Like-named read-outs stand apart in the source and are kept apart here.
# Test system: Aedes aegypti
# Test: In vitro contact activity against adult mosquitoes (coated vial)
# Experimental: Aedes aegypti (Louisiana Biologicals Inc., New Orleans, La.) eggs were allowed to hatch, close, and age between 3-5 days in an environmental chamber at 26° C., 80% humidity with light/dark cycles.
# For mosquito assays, an aliquot from each compound stock was added to an acetone/triton solution to achieve the desired top doses for the study. Serial dilutions were conducted from the top dose (i.e. 50 ppm) to achieve the desired titration range for EC50 and EC90 determination. The final DMSO concentration in each test vial was 0.5%. A 459 μL aliquot of each compound formulation was transferred to a vial and vials were immediately placed on an unheated roller unit to allow for an even coating of the vial walls. The vials were loosely capped and allowed to dry for a minimum of four hours in a chemical fume hood.
# For both contact and ingestion assays, five female Aedes aegypti adults were added to each vial or cage. The test vials for contact assays were held in an environmental chamber at 24° C., 80% humidity with light/dark cycles (12 hours each). The cages for mosquito ingestion assays were held in a temperature-controlled artificial feeding apparatus to allow continual access to organic bovine blood containing the desired concentration of compound. Fresh aliquots of compound-spiked bovine blood were provided daily for the duration of the study.
# Mosquitoes showing no movement or mosquitoes that were knocked down were noted as dead. Results from trial 1 and trial 2 contact assays are shown in Tables 12 and 13, respectively and the results from trial 3 mosquito ingestion assay is shown in table 14.
# For the mosquito contact and ingestion assays, each replicate contained 5 mosquitoes. For ease of calculation, the two replicates were added to equal a total of 10 mosquitoes.
structure (smiles),measurement,setting,value
"O=C(CC(F)(F)F)N1CC2(C1)OCc1cc(C3=NS[C@](c4cc(Cl)c(F)c(Cl)c4)(C(F)(F)F)C3)ccc12 [C1 (R) enantiomer, (R)-1-[6-[5-(3,5-dichloro-4-fluoro-phenyl)-5-(trifluoromethyl)-4H-isothiazol-3-yl]spiro[1H-isobenzofuran-3,3′-azetidine]-1′-yl]-3,3,3-trifluoro-propan-1-one]",mortality at 0.049 µM,"0.5 h, read-out: % Mortality R1 + R2, Trial 1, contact assay, dose 0.049 μM, 0.5 Hr",0%
same,mortality at 0.2 µM,"0.5 h, read-out: % Mortality R1 + R2, Trial 1, contact assay, dose 0.20 μM, 0.5 Hr",0%
same,mortality at 0.78 µM,"0.5 h, read-out: % Mortality R1 + R2, Trial 1, contact assay, dose 0.78 μM, 0.5 Hr",0%
same,mortality at 3.125 µM,"0.5 h, read-out: % Mortality R1 + R2, Trial 1, contact assay, dose 3.125 μM, 0.5 Hr",0%
same,mortality at 12.5 µM,"0.5 h, read-out: % Mortality R1 + R2, Trial 1, contact assay, dose 12.5 μM, 0.5 Hr",0%
same,mortality at 50 µM,"0.5 h, read-out: % Mortality R1 + R2, Trial 1, contact assay, dose 50 μM, 0.5 Hr",0%
same,mortality at 0.049 µM,"0.5 h, read-out: % Mortality R1 + R2, Trial 2, contact assay, dose 0.049 μM, 0.5 Hr",0%
same,mortality at 0.2 µM,"0.5 h, read-out: % Mortality R1 + R2, Trial 2, contact assay, dose 0.20 μM, 0.5 Hr",0%
same,mortality at 0.78 µM,"0.5 h, read-out: % Mortality R1 + R2, Trial 2, contact assay, dose 0.78 μM, 0.5 Hr",0%
same,mortality at 3.125 µM,"0.5 h, read-out: % Mortality R1 + R2, Trial 2, contact assay, dose 3.125 μM, 0.5 Hr",0%
same,mortality at 12.5 µM,"0.5 h, read-out: % Mortality R1 + R2, Trial 2, contact assay, dose 12.5 μM, 0.5 Hr",0%
same,mortality at 50 µM,"0.5 h, read-out: % Mortality R1 + R2, Trial 2, contact assay, dose 50 μM, 0.5 Hr",0%
same,mortality at 0.049 µM,"1 h, read-out: % Mortality R1 + R2, Trial 1, contact assay, dose 0.049 μM, 1 hr",0%
same,mortality at 0.2 µM,"1 h, read-out: % Mortality R1 + R2, Trial 1, contact assay, dose 0.20 μM, 1 hr",0%
same,mortality at 0.78 µM,"1 h, read-out: % Mortality R1 + R2, Trial 1, contact assay, dose 0.78 μM, 1 hr",0%
same,mortality at 3.125 µM,"1 h, read-out: % Mortality R1 + R2, Trial 1, contact assay, dose 3.125 μM, 1 hr",0%
same,mortality at 12.5 µM,"1 h, read-out: % Mortality R1 + R2, Trial 1, contact assay, dose 12.5 μM, 1 hr",0%
same,mortality at 50 µM,"1 h, read-out: % Mortality R1 + R2, Trial 1, contact assay, dose 50 μM, 1 hr",0%
same,mortality at 0.049 µM,"1 h, read-out: % Mortality R1 + R2, Trial 2, contact assay, dose 0.049 μM, 1 hr",0%
same,mortality at 0.2 µM,"1 h, read-out: % Mortality R1 + R2, Trial 2, contact assay, dose 0.20 μM, 1 hr",0%
same,mortality at 0.78 µM,"1 h, read-out: % Mortality R1 + R2, Trial 2, contact assay, dose 0.78 μM, 1 hr",0%
same,mortality at 3.125 µM,"1 h, read-out: % Mortality R1 + R2, Trial 2, contact assay, dose 3.125 μM, 1 hr",0%
same,mortality at 12.5 µM,"1 h, read-out: % Mortality R1 + R2, Trial 2, contact assay, dose 12.5 μM, 1 hr",0%
same,mortality at 50 µM,"1 h, read-out: % Mortality R1 + R2, Trial 2, contact assay, dose 50 μM, 1 hr",0%
same,mortality at 0.049 µM,"6 h, read-out: % Mortality R1 + R2, Trial 1, contact assay, dose 0.049 μM, 6 hr",0%
same,mortality at 0.2 µM,"6 h, read-out: % Mortality R1 + R2, Trial 1, contact assay, dose 0.20 μM, 6 hr",0%
same,mortality at 0.78 µM,"6 h, read-out: % Mortality R1 + R2, Trial 1, contact assay, dose 0.78 μM, 6 hr",0%
same,mortality at 3.125 µM,"6 h, read-out: % Mortality R1 + R2, Trial 1, contact assay, dose 3.125 μM, 6 hr",0%
same,mortality at 12.5 µM,"6 h, read-out: % Mortality R1 + R2, Trial 1, contact assay, dose 12.5 μM, 6 hr",0%
same,mortality at 50 µM,"6 h, read-out: % Mortality R1 + R2, Trial 1, contact assay, dose 50 μM, 6 hr",0%
same,mortality at 0.049 µM,"6 h, read-out: % Mortality R1 + R2, Trial 2, contact assay, dose 0.049 μM, 6 hr",0%
same,mortality at 0.2 µM,"6 h, read-out: % Mortality R1 + R2, Trial 2, contact assay, dose 0.20 μM, 6 hr",0%
same,mortality at 0.78 µM,"6 h, read-out: % Mortality R1 + R2, Trial 2, contact assay, dose 0.78 μM, 6 hr",0%
same,mortality at 3.125 µM,"6 h, read-out: % Mortality R1 + R2, Trial 2, contact assay, dose 3.125 μM, 6 hr",0%
same,mortality at 12.5 µM,"6 h, read-out: % Mortality R1 + R2, Trial 2, contact assay, dose 12.5 μM, 6 hr",0%
same,mortality at 50 µM,"6 h, read-out: % Mortality R1 + R2, Trial 2, contact assay, dose 50 μM, 6 hr",0%
same,mortality at 0.049 µM,"12 h, read-out: % Mortality R1 + R2, Trial 1, contact assay, dose 0.049 μM, 12 hr",0%
same,mortality at 0.2 µM,"12 h, read-out: % Mortality R1 + R2, Trial 1, contact assay, dose 0.20 μM, 12 hr",0%
same,mortality at 0.78 µM,"12 h, read-out: % Mortality R1 + R2, Trial 1, contact assay, dose 0.78 μM, 12 hr",0%
same,mortality at 3.125 µM,"12 h, read-out: % Mortality R1 + R2, Trial 1, contact assay, dose 3.125 μM, 12 hr",0%
same,mortality at 12.5 µM,"12 h, read-out: % Mortality R1 + R2, Trial 1, contact assay, dose 12.5 μM, 12 hr",0%
same,mortality at 50 µM,"12 h, read-out: % Mortality R1 + R2, Trial 1, contact assay, dose 50 μM, 12 hr",30%
same,mortality at 0.049 µM,"12 h, read-out: % Mortality R1 + R2, Trial 2, contact assay, dose 0.049 μM, 12 hr",0%
same,mortality at 0.2 µM,"12 h, read-out: % Mortality R1 + R2, Trial 2, contact assay, dose 0.20 μM, 12 hr",10%
same,mortality at 0.78 µM,"12 h, read-out: % Mortality R1 + R2, Trial 2, contact assay, dose 0.78 μM, 12 hr",10%
same,mortality at 3.125 µM,"12 h, read-out: % Mortality R1 + R2, Trial 2, contact assay, dose 3.125 μM, 12 hr",0%
same,mortality at 12.5 µM,"12 h, read-out: % Mortality R1 + R2, Trial 2, contact assay, dose 12.5 μM, 12 hr",0%
same,mortality at 50 µM,"12 h, read-out: % Mortality R1 + R2, Trial 2, contact assay, dose 50 μM, 12 hr",20%
same,mortality at 0.049 µM,"24 h, read-out: % Mortality R1 + R2, Trial 1, contact assay, dose 0.049 μM, 24 hr",0%
same,mortality at 0.2 µM,"24 h, read-out: % Mortality R1 + R2, Trial 1, contact assay, dose 0.20 μM, 24 hr",0%
same,mortality at 0.78 µM,"24 h, read-out: % Mortality R1 + R2, Trial 1, contact assay, dose 0.78 μM, 24 hr",0%
same,mortality at 3.125 µM,"24 h, read-out: % Mortality R1 + R2, Trial 1, contact assay, dose 3.125 μM, 24 hr",0%
same,mortality at 12.5 µM,"24 h, read-out: % Mortality R1 + R2, Trial 1, contact assay, dose 12.5 μM, 24 hr",0%
same,mortality at 50 µM,"24 h, read-out: % Mortality R1 + R2, Trial 1, contact assay, dose 50 μM, 24 hr",100%
same,mortality at 0.049 µM,"24 h, read-out: % Mortality R1 + R2, Trial 2, contact assay, dose 0.049 μM, 24 hr",0%
same,mortality at 0.2 µM,"24 h, read-out: % Mortality R1 + R2, Trial 2, contact assay, dose 0.20 μM, 24 hr",0%
same,mortality at 0.78 µM,"24 h, read-out: % Mortality R1 + R2, Trial 2, contact assay, dose 0.78 μM, 24 hr",10%
same,mortality at 3.125 µM,"24 h, read-out: % Mortality R1 + R2, Trial 2, contact assay, dose 3.125 μM, 24 hr",10%
same,mortality at 12.5 µM,"24 h, read-out: % Mortality R1 + R2, Trial 2, contact assay, dose 12.5 μM, 24 hr",60%
same,mortality at 50 µM,"24 h, read-out: % Mortality R1 + R2, Trial 2, contact assay, dose 50 μM, 24 hr",100%
same,mortality at 0.049 µM,"48 h, read-out: % Mortality R1 + R2, Trial 1, contact assay, dose 0.049 μM, 48 hr",10%
same,mortality at 0.2 µM,"48 h, read-out: % Mortality R1 + R2, Trial 1, contact assay, dose 0.20 μM, 48 hr",40%
same,mortality at 0.78 µM,"48 h, read-out: % Mortality R1 + R2, Trial 1, contact assay, dose 0.78 μM, 48 hr",20%
same,mortality at 3.125 µM,"48 h, read-out: % Mortality R1 + R2, Trial 1, contact assay, dose 3.125 μM, 48 hr",30%
same,mortality at 12.5 µM,"48 h, read-out: % Mortality R1 + R2, Trial 1, contact assay, dose 12.5 μM, 48 hr",50%
same,mortality at 50 µM,"48 h, read-out: % Mortality R1 + R2, Trial 1, contact assay, dose 50 μM, 48 hr",100%
same,mortality at 0.049 µM,"48 h, read-out: % Mortality R1 + R2, Trial 2, contact assay, dose 0.049 μM, 48 hr",20%
same,mortality at 0.2 µM,"48 h, read-out: % Mortality R1 + R2, Trial 2, contact assay, dose 0.20 μM, 48 hr",60%
same,mortality at 0.78 µM,"48 h, read-out: % Mortality R1 + R2, Trial 2, contact assay, dose 0.78 μM, 48 hr",10%
same,mortality at 3.125 µM,"48 h, read-out: % Mortality R1 + R2, Trial 2, contact assay, dose 3.125 μM, 48 hr",20%
same,mortality at 12.5 µM,"48 h, read-out: % Mortality R1 + R2, Trial 2, contact assay, dose 12.5 μM, 48 hr",100%
same,mortality at 50 µM,"48 h, read-out: % Mortality R1 + R2, Trial 2, contact assay, dose 50 μM, 48 hr",100%
